Measured values taken from patent US11420950B2, “Heterocyclicalkyl derivative compounds as selective histone deacetylase inhibitors and pharmaceutical compositions comprising the same” (Chong Kun Dang Pharmaceutical Corp., priority 2015, dated 2022).

Experiments:
[1] = test system: adjuvant-induced arthritis models; test: Adjuvant-induced arthritis model, clinical score; assay type: in vivo; conditions: Lewis rat, vehicle 9-11
Description: […] of complete Freund's adjuvant (Chondrex) was injected intradermally into the tail of each Lewis rat to induce animal models. From one day before induction, the rats were divided into groups based on body weight, and the test compound was administered orally to the rats at various doses once a day, followed by evaluation.
Clinical score and body weight were measured twice a week from the day of first administration of the test compound. The clinical score was recorded as 0-4 points, and the total clinical score was evaluated after observing the foot of each rat (0: normal; and 16: the most severe edema).
The medicinal effect of the test compound in the arthritis models was evaluated based on the degree of joint edema, and a higher clinical score indicates a more severe degree of edema.

HDAC6 human recombinant = molecular target: T1, HDAC6 human recombinant (Homo sapiens, UniProt Q9UBN7); test: HDAC6 enzyme inhibition, fluorimetric assay; assay type: biochemical
T1 construct: purchased Calbiochem 382180
T1 sequence (Q9UBN7 1-1215): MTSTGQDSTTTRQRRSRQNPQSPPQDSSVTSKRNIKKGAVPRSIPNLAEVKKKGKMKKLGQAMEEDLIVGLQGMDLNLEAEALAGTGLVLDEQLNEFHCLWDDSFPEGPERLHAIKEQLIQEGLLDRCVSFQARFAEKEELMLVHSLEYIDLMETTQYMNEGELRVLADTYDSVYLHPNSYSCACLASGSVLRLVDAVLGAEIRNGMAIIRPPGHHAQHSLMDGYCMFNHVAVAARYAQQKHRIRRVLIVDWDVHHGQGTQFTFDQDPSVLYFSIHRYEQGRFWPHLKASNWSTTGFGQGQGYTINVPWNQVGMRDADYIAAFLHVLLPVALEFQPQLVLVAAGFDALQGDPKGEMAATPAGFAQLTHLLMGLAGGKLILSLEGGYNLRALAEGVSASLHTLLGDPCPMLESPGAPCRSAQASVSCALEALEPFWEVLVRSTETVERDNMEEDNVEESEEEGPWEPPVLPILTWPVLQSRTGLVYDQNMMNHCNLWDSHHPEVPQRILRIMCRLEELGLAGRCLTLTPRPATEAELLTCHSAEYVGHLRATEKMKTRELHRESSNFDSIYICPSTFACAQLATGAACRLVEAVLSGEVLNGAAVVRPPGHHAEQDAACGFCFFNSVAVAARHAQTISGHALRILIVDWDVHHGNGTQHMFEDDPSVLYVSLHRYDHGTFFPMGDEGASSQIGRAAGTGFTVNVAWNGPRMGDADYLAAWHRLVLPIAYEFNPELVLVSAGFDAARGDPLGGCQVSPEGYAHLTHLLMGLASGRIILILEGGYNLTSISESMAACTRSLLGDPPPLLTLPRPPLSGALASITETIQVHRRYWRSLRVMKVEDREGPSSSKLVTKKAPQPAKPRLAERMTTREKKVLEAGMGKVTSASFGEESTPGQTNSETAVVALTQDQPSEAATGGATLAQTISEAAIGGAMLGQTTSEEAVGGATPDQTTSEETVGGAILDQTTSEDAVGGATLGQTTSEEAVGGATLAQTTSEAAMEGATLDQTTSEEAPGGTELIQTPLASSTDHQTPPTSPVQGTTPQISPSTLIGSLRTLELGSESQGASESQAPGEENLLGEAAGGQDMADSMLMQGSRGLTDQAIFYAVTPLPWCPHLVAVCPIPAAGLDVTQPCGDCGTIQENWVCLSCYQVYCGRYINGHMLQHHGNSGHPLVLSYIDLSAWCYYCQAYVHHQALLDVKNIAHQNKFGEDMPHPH
Description: (§1) Using a HDAC1 fluorimetric drug discovery assay kit (Enzolifesciences: BML-AK511) and a HDAC6 human recombinant (Calbiochem: 382180), the HDAC enzyme inhibitory abilities of test compounds were measured. It was treated with 100, 1000 and 10000 nM concentrations for HDAC1 assay, and 0.1, 1, 10, 100 and 1000 nM concentrations for HDAC6 assay. It was allowed to react at 37° C. for 60 minutes, and then was treated with a developer and allowed to react at 37° C. for 30 minutes, after which the fluorescence intensity (Ex 390 nm; Em 460 nm) was measured using FlexStatin3 (Molecular Device).

HDAC1 = molecular target: T2, HDAC1 (Homo sapiens, UniProt Q13547); test: HDAC1 enzyme inhibition, HDAC1 fluorimetric drug discovery assay kit; assay type: biochemical; conditions: 100-10000 nM tested, 37° C. 60 minutes, fluorescence; read-out: HDAC1 (μM), ability to inhibit the activity of HDAC enzyme
T2 construct: purchased Enzolifesciences BML-AK511
Description: as §1

T2 sequence (Q13547 whole entry): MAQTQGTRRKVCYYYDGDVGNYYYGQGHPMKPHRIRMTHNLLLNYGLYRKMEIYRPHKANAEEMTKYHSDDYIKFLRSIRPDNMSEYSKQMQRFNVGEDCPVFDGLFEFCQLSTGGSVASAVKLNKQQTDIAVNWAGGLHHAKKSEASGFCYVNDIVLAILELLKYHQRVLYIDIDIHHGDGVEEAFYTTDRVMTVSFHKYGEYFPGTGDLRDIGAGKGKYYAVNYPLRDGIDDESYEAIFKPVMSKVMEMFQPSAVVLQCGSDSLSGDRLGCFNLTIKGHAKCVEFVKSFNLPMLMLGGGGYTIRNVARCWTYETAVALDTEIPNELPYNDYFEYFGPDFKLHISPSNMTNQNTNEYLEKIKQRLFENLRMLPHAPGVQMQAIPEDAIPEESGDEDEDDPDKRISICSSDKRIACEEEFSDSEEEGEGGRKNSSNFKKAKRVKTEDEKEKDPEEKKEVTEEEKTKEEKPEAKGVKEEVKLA

O=C(CCCCCCNC(=O)N1CCN(C(c2ccccc2)c2ccccc2)CC1)NO [Compound 1102, 4-benzhydryl-N-(7-(hydroxyamino)-7-oxoheptyl)piperazine-1-carboxamide]
clinical score (joint edema, 0: normal; 16: the most severe edema) ([1]; 1 mg/kg orally once a day): 6-8 | clinical score (joint edema, 0: normal; 16: the most severe edema) ([1]; 10 mg/kg orally once a day): 4-6 | clinical score (joint edema, 0: normal; 16: the most severe edema) ([1]; 50 mg/kg orally once a day): 1-3 | IC50 (HDAC6 human recombinant; 0.1-1000 nM tested, 37° C. 60 minutes, fluorescence, read-out: HDAC6 (μM), ability to inhibit the activity of HDAC enzyme): 0.004 µM | selectivity for HDAC1/6 enzymes (HDAC1/HDAC6) (HDAC6 human recombinant; ratio of HDAC1 to HDAC6 values): 960 fold | IC50 (HDAC1): 3.84 µM
